Experimental data: PMC7396997, “Discovery of 4-Anilinoquinolinylchalcone Derivatives as Potential NRF2 Activators” (Molecules, 2020)
Several values for one entry are separate records, joined by “and”; a condition that tells them apart may be missing. Equal entries are not always repeated. Structures can show the parent of a compound that is named as a salt. Where two headings read alike, the source gives them in different places. Each block holds one molecule with its values, some of them ahead of it.

Legend:
[1] = tested on: GCLM and NQO1; set-up: method as in PMID 21539383; details: small intestine; cited from earlier work
[2] = tested on: NRF2; experiment: ARE-driven luciferase reporter assay (NRF2 activity) in HaCaT/ARE stable cells; format: cell-based, human; details: for % of Relative NRF2 Activity in HaCaT Cell / activity at 10 µM: 10 μM, 24 h (b12; method b59 says 18 h), luciferase normalised to cell viability, DMSO control = 100%; for Emax of NRF2 promoter activity / EC50: HaCaT/ARE cells, 18 h, dose-response; for activity at 10 µM: HaCaT, read-out: % of Relative NRF2 Activity in HaCaT Cell; for EC50: read-out: EC50 of NRF2 promoter activity
Description: In this study, we used a stable ARE-driven reporter system to screen the potential NRF2 activators.

[3] = tested on: HaCaT/ARE cells; experiment: Cell viability (resazurin) in the reporter screen; details: for Cell Viability: 10 μM, in % (unit assumed)
Method: Immortalized human keratinocytes HaCaT were cultured in the Dulbecco’s modified Eagle’s medium (DMEM; Gibco BRL, Grand Island, NY, USA) with 10% heat-inactivated fetal bovine serum (HyClone, Logan, UT, USA), penicillin (100 U/mL), and streptomycin (100 μg/mL) in a humidified incubator with 5% CO2. HaCaT/ARE stable cells were grown in DMEM supplemented with 100 μg/mL of hygromycin.
HaCaT/ARE stable cells were seeded (1 × 10^4 cells/well) in a 96 well plate, then were treated with indicated concentrations of compounds for 18 h. At the assay time point, resazurin (Cayman Chemical, Ann Arbor, MI, USA) was added to a final concentration of 0.1 mg/mL and further incubated for 4 h at 37 °C. Fluorescence of the reduced resazurin (ex/em: 530 nm/590 nm) was measured from the culture supernatant by using a Synergy HT Multi-Mode Reader (BioTek, Winooski, VT, USA) to determine cell viability. The cells were then harvested for luciferase activity measurements according to the manufacturer’s protocol (Promega Corporation, Madison, WI, USA). Relative luciferase activity was calculated by normalizing luciferase activity to cell viability, and DMSO solvent control was used as 100% activity.

[4] = Cytotoxicity, 72 h resazurin cell viability assay; format: cell-based, human; details: human
Method: (§1) Cells were seeded in a 96-well plate contained 100 μL culture medium in triplicate and treated with several compounds for 72 h. At the assay time point, resazurin (Cayman Chemical) was added and further incubated for 4 h at 37 °C. Fluorescence of the reduced resazurin was measured as described previously.
(§2) Figure 3 The cytotoxicity of 12b, 13b, and 14b in HaCaT cells. HaCaT cells were treated with indicated concentrations of these three compounds for 72 h. Cell viability was determined by a resazurin assay as described in the Materials and Methods section. Data presented as mean ± SD from three independent experiments.

[5] = tested on: HaCaT cells; experiment: Cytotoxicity, 72 h resazurin cell viability assay; format: cell-based, human
Method: as §1, §2

[6] = tested on: NRF2 mRNA; experiment: qRT-PCR of NRF2 mRNA in HaCaT cells; format: cell-based, human; details: 18 h, real-time PCR
Method: (§3) To further evaluate the effect of compound 13b on NRF2 activation, the mRNA level of NRF2 target genes were determined by real-time PCR.
(§4) RNA was prepared by using the TRIzol Reagent (Thermo Scientific, Madison, WI, USA) and was reverse transcribed into cDNA using a TOOLs Easy Fast RT Kit (TOOLs Biotechnology, New Taipei City, Taiwan). PCR was performed on an ABI StepOne Plus System (Applied Biosystems, Foster City, CA, USA) using the KAPA SYBR® FAST qPCR Master Mix (2X) Kit (Sigma-Aldrich, St. Louis, MO, USA). The mRNA level was normalized using the glyceraldehyde 3-phosphate dehydrogenase (GAPDH) mRNA level as the standard. The following primers were used: NRF2 forward: 5′-[…] and reverse: 5′-[…]; HO1 forward: 5′-GCCAGCAACAAAGTGCAAG and reverse: 5′-[…]; NQO1 forward: 5′-[…] and reverse: 5′-[…]; GCLC forward: 5′-[…] and reverse: 5′-[…]; G6PD forward: 5′-CAACATCGCCTGCGTTA and reverse: 5′-CTTGACCTTCTCATCACGG; and GAPDH forward: 5′-[…] and reverse: 5′-[…].
(§5) Figure 5 The compound 13b increased the NRF2 expression at the protein level in the HaCaT cell. (A) HaCaT cells were treated with indicated concentrations of compound 13b for 8 h. Protein expression of NRF2 was determined by Western blot. (B) HaCaT cells were treated with indicated concentrations of 13b for 18 h. Total RNA was isolated and submitted to reverse transcription and real-time PCR for the detection of the NRF2 mRNA level.

[7] = tested on: NRF2; experiment: Western blot of NRF2 protein in HaCaT cells; format: cell-based, human; details: 8 h
Method: as §3
Cells were washed with PBS and harvested with RIPA lysis buffer (50 mM Tris (pH 7.5), 150 mM NaCl, 1% Tx-100) supplemented with protease and phosphatase inhibitors (1 mM PMSF, 10 μg/mL leupeptin, 50 μg/mL TLCK, 50 μg/mL TPCK, 1 μg/mL aprotinin, 1 mM NaF, 5 mM NaPPi, and 10 mM Na3VO4). The cell lysates were cleared via 10 min spins at 13,000 rpm, 4 °C. Protein concentrations were determined by a Bio-Rad Protein Assay (Bio-Rad, Hercules, CA, USA). Samples corresponded to 20 μg of protein were used for Western blot according to our previous publication. The following antibodies were used: anti-NRF2 (GeneTex, Irvine, CA, USA) and anti-GAPDH (Abcam, Cambridge, MA, USA).
as §5

[8] = tested on: NRF2 target genes (HO1, G6PD, GCLC); experiment: qRT-PCR of NRF2 target genes in HaCaT cells; format: cell-based, human; details: 18 h, real-time PCR
Method: as §3, §4
Figure 4 Compound 13b increased the expression of NRF2 target genes in the HaCaT cell. HaCaT cells were treated with indicated concentrations of 13b for 18 h. Total RNA was isolated and submitted to reverse transcription and real-time PCR for the detection of the NRF2 target genes including HO1 (A), GLCL (B), G6PD (C), and NQO1 (D). Data are expressed as normalized mRNA level and presented as mean ± SD from three independent experiments. The asterisk (*) indicates a significant difference between 13b treated groups and control group (* p< 0.05, *** p< 0.001, one-way ANOVA).

melting point: 238.5 to 239.2 °C
Molecule: O=C(/C=C/c1cc(Nc2ccccc2)c2ccccc2n1)c1ccccc1 (as salt: hydrochloride) [12a, (E)-1-phenyl-3-[4-(phenylamino)quinolin-2-yl]prop-2-en-1-one]

melting point: 158.7 to 159.3 °C
Molecule: CCN(CC)CCOC(=O)c1ccc(Nc2cc(/C=C/C(=O)c3ccccc3)nc3ccccc23)cc1 (as salt: hydrochloride) [12h, 2-(Diethylamino)ethyl (E)-4-{[2-(3-oxo-3-phenylprop-1-en-1-yl)quinolin-4-yl]amino}benzoate]

melting point: 158.7 to 159.3 °C
Molecule: CCN(CC)CCOC(=O)c1ccc(Nc2cc(/C=C/C(=O)c3ccc(OC)cc3)nc3ccccc23)cc1 (as salt: hydrochloride) [14h, 2-(Diethylamino)ethyl (E)-4-{{2-[3-(4-methoxyphenyl)-3-oxoprop-1-en-1-yl]-quinolin-4-yl}amino}benzoate]

Molecule: COc1ccccc1C(=O)/C=C/c1ccccc1C(F)(F)F [Compound 1, (E)-1-(2-methoxyphenyl)-3-[2-(trifluoromethyl)phenyl]prop-2-en-1-one]
expression of GCLM compared to sulforaphane [1]: 3 fold
expression of NQO1 compared to sulforaphane [1]: 5 fold

melting point: 200.2 to 201.5 °C
Molecule: C/C(=N\OCCN)c1ccc(Nc2cc(/C=C/C(=O)c3ccccc3)nc3ccccc23)cc1 (as salt: hydrochloride) [12d]

melting point: 135.4 to 135.8 °C
Molecule: CCN(CC)CCOC(=O)c1ccc(Nc2cc(/C=C/C(=O)c3ccc(F)cc3)nc3ccccc23)cc1 (as salt: hydrochloride) [13h, 2-(Diethylamino)ethyl (E)-4-{{2-[3-(4-fluorophenyl)-3-oxoprop-1-en-1-yl]-quinolin-4-yl}amino}benzoate]

melting point: 248.7 to 249.2 °C
Molecule: CC(=O)c1ccc(Nc2cc(/C=C/C(=O)c3ccccc3)nc3ccccc23)cc1 (as salt: hydrochloride) [12b, (E)-3-{4-[(4-acetylphenyl)amino]quinolin-2-yl}-1-phenylprop-2-en-1-one]

Molecule: (E)-N-[2-(Diethylamino)ethyl]-4-{{2-[3-(4-methoxyphenyl)-3-oxoprop-1-en-1-yl]quinolin-4-yl}amino}benzamide [14g]
% of Relative NRF2 Activity in HaCaT Cell [2]: 5% and 5.1 ± 0.18%
Cell Viability [3]: 77.6 ± 1.5

melting point: 155.6 to 156.6 °C
Molecule: C/C(=N\OCCCN(C)C)c1ccc(Nc2cc(/C=C/C(=O)c3ccccc3)nc3ccccc23)cc1 (as salt: hydrochloride) [12e, (E)-3-{4-{{4-{(E)-1-{[3-(dimethylamino)propoxy]imino}ethyl}phenyl}-amino}quinolin-2-yl}-1-phenylprop-2-en-1-one]

Molecule: CC(C)(C)c1cc(O)ccc1O [t-BHQ, tert-Butyl hydroquinone, reference compound]
% of Relative NRF2 Activity in HaCaT Cell [2]: 1880% and 1880.4 ± 97.2%
Cell Viability [3]: 97.7 ± 1.5

Molecule: CC(=O)c1ccc(Nc2cc(/C=C/C(=O)c3ccccc3)nc3ccccc23)cc1 [12b, (E)-3-{4-[(4-acetylphenyl)amino]quinolin-2-yl}-1-phenylprop-2-en-1-one]
Emax of NRF2 promoter activity [2]: 692.8±53.3%
activity at 10 µM ([2]; Homo sapiens): 394%
EC50 ([2]; Homo sapiens): 0.85 ± 0.04 µM
CC50 at 72 h [4]: 9.3 µM
Cell Viability [3]: 71.2 ± 1.8

Molecule: (E)-3-{4-[(4-Acetylphenyl)amino]quinolin-2-yl}-1-(4-methoxyphenyl)prop-2-en-1-one [14b]
% of Relative NRF2 Activity in HaCaT Cell [2]: 937% and 936.5 ± 39.8%
Emax of NRF2 promoter activity [2]: 748.5±73.6%
EC50 [2]: 1.58 ± 0.15 µM
CC50 [5]: 28.4 µM

Molecule: CCN(CC)CCNC(=O)c1ccc(Nc2cc(/C=C/C(=O)c3ccccc3)nc3ccccc23)cc1 [12f]
activity at 10 µM ([2]; Homo sapiens): 26%
Cell Viability [3]: 78.8 ± 0.1

Molecule: (E)-3-{4-[(4-acetylphenyl)amino]quinolin-2-yl}-1-(4-fluorophenyl)prop-2-en-1-one [13b]
mRNA of NRF2 [6]: without altering
expression of NRF2 protein [7]: effectively enhance
% of Relative NRF2 Activity in HaCaT Cell [2]: 2205% and 2205.2 ± 144.9%
EC50 [2]: 1.95 µM
G6PD mRNA expression [8]: significantly increased
GCLC mRNA expression [8]: significantly increased
HO1 mRNA expression [8]: significantly increased
CC50 ([5]; HaCaT cells, 72 h, read-out: CC50): > 100 µM
survival rate ([3]; 10 µM): 96%
Cell Viability [3]: 95.7 ± 1.8

melting point: 298.3 to 298.9 °C
Molecule: O=C(O)c1ccc(Nc2cc(/C=C/C(=O)c3ccccc3)nc3ccccc23)cc1 (as salt: hydrochloride) [12c, (E)-4-{[2-(3-oxo-3-phenylprop-1-en-1-yl)quinolin-4-yl]amino}benzoic acid]

Molecule: C/C(=N\OCCCN(C)C)c1ccc(Nc2cc(/C=C/C(=O)c3ccc(F)cc3)nc3ccccc23)cc1 [14e]
activity at 10 µM ([2]; Homo sapiens): 193%
Cell Viability [3]: 76.7 ± 0.2

Molecule: CCN(CC)CCNC(=O)c1ccc(Nc2cc(/C=C/C(=O)c3ccc(F)cc3)nc3ccccc23)cc1 [14f]
% of Relative NRF2 Activity in HaCaT Cell [2]: 6.0 ± 0.3%
activity at 10 µM ([2]; Homo sapiens): 6%
Cell Viability [3]: 66.3 ± 2.6
